Assay results reported in patent publication US20250230193A1, “CYCLIC COMPOUND HAVING SELECTIVE KRAS INHIBITORY EFFECT ON HRAS AND NRAS” (CHUGAI SEIYAKU KABUSHIKI KAISHA, priority 2022, published 2025).

Legend:
[1] = target: GDP-bound NRAS wild-type protein (Homo sapiens, UniProt P01111); experiment: Binding to NRAS by surface plasmon resonance (SPR), Single Cycle Kinetics; conditions: KD ratio NRAS/KRAS, class symbols
[2] = target: GDP-bound HRAS wild-type protein (Homo sapiens, UniProt P01112); experiment: Binding to HRAS by surface plasmon resonance (SPR), Single Cycle Kinetics; conditions: KD ratio HRAS/KRAS, class symbols
Chain of GDP-bound HRAS wild-type protein (P01112 whole entry): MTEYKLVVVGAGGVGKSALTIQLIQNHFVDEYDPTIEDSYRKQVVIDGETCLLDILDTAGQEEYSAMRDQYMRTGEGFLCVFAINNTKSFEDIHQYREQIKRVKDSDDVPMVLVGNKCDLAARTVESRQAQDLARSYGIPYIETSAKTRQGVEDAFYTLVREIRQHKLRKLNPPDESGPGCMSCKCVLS

Chain of GDP-bound NRAS wild-type protein (P01111 whole entry): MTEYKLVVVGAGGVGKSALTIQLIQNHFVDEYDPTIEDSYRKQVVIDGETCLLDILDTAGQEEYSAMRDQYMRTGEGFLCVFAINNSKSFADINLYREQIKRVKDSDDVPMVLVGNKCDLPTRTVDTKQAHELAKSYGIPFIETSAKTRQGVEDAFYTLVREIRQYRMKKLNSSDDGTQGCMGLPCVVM

Structure (SMILES) | NRAS/KRAS (ratio of KD value with respect to GDP-bound NRAS wild-type protein to KD value with respect to KRAS) [1] | HRAS/KRAS (ratio of KD value with respect to GDP-bound HRAS wild-type protein to KD value with respect to KRAS) [2]
C#CC[C@H]1C(=O)N[C@@H]([C@@H](C)CC)C(=O)N(C)CC(=O)N(C)[C@H]2C/C=C\CCN(C2=O)[C@@H](Cc2ccc(C(F)(F)F)cc2)C(=O)N(C)CC(=O)N[C@@H](CCc2ccc(C(F)(F)F)c(OC)c2)C(=O)N2CC[C@H]2C(=O)NC2(CCC2)C(=O)N(C)[C@@H](C2CCCC2)C(=O)N(C)[C@H](C(=O)N(C)C)CC(=O)N1C [PP2911] | A (a compound having 10 or more and less than 20 is denoted as A) | B (a compound having 3 or more and less than 10 is denoted as B)
CCC[C@H]1C(=O)N[C@@H]([C@@H](C)CC)C(=O)N(C)CC(=O)N(C)[C@H]2C/C=C\CCN(C2=O)[C@@H](Cc2ccc(C(F)(F)F)cc2)C(=O)N(C)CC(=O)N[C@@H](CCc2ccc3ccn(C)c3c2)C(=O)N2C[C@H](OCC)C[C@H]2C(=O)NC2(CC(C)(C)C2)C(=O)N(C)[C@@H](C(CC)CC)C(=O)N(C)[C@H](C(=O)N(C)C)CC(=O)N1C [PP2912] | AA (a compound having 20 or more is denoted as AA) | A (a compound having 10 or more and less than 20 is denoted as A)
CCCN(C)C(=O)[C@@H]1CC(=O)N(C)[C@@H](CC)C(=O)N[C@@H]([C@@H](C)CC)C(=O)N(C)CC(=O)N(C)[C@H]2C/C=C\CCN(C2=O)[C@@H](Cc2ccc(C(F)(F)F)cc2)C(=O)N(C)CC(=O)N[C@@H](CCc2cc(F)c(C(F)(F)F)c(F)c2)C(=O)N2C[C@H](OCC3CC3)C[C@H]2C(=O)NC2(CCC2)C(=O)N(C)[C@@H](C2CCCC2)C(=O)N1C [PP2913] | A (a compound having 10 or more and less than 20 is denoted as A) | A (a compound having 10 or more and less than 20 is denoted as A)
CCC[C@H]1C(=O)N[C@@H]([C@@H](C)CC)C(=O)N(C)CC(=O)N(C)[C@H]2C/C=C\CCN(C2=O)[C@@H](Cc2ccc(C)cc2)C(=O)N(C)CC(=O)N[C@@H](CCc2ccc3ccn(C)c3c2)C(=O)N2C[C@H](OCC)C[C@H]2C(=O)NC2(CC(C)(C)C2)C(=O)N(C)[C@@H](C(CC)CC)C(=O)N(C)[C@H](C(=O)N(C)C)CC(=O)N1C [PP2914] | AA (a compound having 20 or more is denoted as AA) | A (a compound having 10 or more and less than 20 is denoted as A)
CCCN(C)C(=O)[C@@H]1CC(=O)N(C)[C@@H](CC)C(=O)N[C@@H]([C@@H](C)CC)C(=O)N(C)CC(=O)N(C)[C@H]2C/C=C\CCN(C2=O)[C@@H](Cc2ccc(C(F)(F)F)cc2)C(=O)N(C)CC(=O)N[C@@H](CCc2cc(F)c(C(F)(F)F)c(F)c2)C(=O)N2CC[C@H]2C(=O)NC2(CCC2)C(=O)N(C)[C@@H](C2CCCC2)C(=O)N1C [PP2915] | A (a compound having 10 or more and less than 20 is denoted as A) | A (a compound having 10 or more and less than 20 is denoted as A)
CCC(CC)[C@H]1C(=O)N(C)[C@H](C(=O)N(C)C)CC(=O)N(C)[C@@H](COC)C(=O)N[C@@H]([C@@H](C)CC)C(=O)N(C)CC(=O)N(C)[C@H]2C/C=C\CCN(C2=O)[C@@H](Cc2ccc(C(F)(F)F)cc2)C(=O)N(C)CC(=O)N[C@@H](CCc2cc(F)c(C(F)(F)F)c(F)c2)C(=O)N2CCCC[C@H]2C(=O)NC2(CC(C)(C)C2)C(=O)N1C [PP2916] | A (a compound having 10 or more and less than 20 is denoted as A) | A (a compound having 10 or more and less than 20 is denoted as A)
CCC(CC)[C@H]1C(=O)N(C)[C@H](C(=O)N(C)C)CC(=O)N(C)[C@@H](COC)C(=O)N[C@@H]([C@@H](C)CC)C(=O)N(C)CC(=O)N(C)[C@H]2C/C=C\CCN(C2=O)[C@@H](Cc2ccc(C(F)(F)F)cc2)C(=O)N(C)CC(=O)N[C@@H](CCc2cc(F)c(C(F)(F)F)c(F)c2)C(=O)N2CCOC[C@H]2C(=O)NC2(CC(C)(C)C2)C(=O)N1C [PP2917] | AA (a compound having 20 or more is denoted as AA) | A (a compound having 10 or more and less than 20 is denoted as A)
CCC(CC)[C@H]1C(=O)N(C)[C@H](C(=O)N(C)C)CC(=O)N(C)[C@@H](COC)C(=O)N[C@@H]([C@@H](C)CC)C(=O)N(C)CC(=O)N(C)[C@H]2C/C=C\CCN(C2=O)[C@@H](Cc2ccc(C(F)(F)F)cc2)C(=O)N(C)CC(=O)N[C@@H](CCc2cc(F)c(C(F)(F)F)c(F)c2)C(=O)N2CC[C@H]2C(=O)NC2(CC(C)(C)C2)C(=O)N1C [PP2918] | AA (a compound having 20 or more is denoted as AA) | A (a compound having 10 or more and less than 20 is denoted as A)
CCC[C@H]1C(=O)N[C@@H]([C@@H](C)CC)C(=O)N(C)CC(=O)N(C)[C@H]2C/C=C\CCN(C2=O)[C@@H](Cc2ccc(C(F)(F)F)cc2)C(=O)N(C)CC(=O)N[C@@H](CCc2ccc(Cl)c(Cl)c2)C(=O)N2CCOC[C@H]2C(=O)NC2(CC(C)(C)C2)C(=O)N(C)[C@@H](C(CC)CC)C(=O)N(C)[C@H](C(=O)N(C)C)CC(=O)N1C [PP2920] | AA (a compound having 20 or more is denoted as AA) | A (a compound having 10 or more and less than 20 is denoted as A)
CCC[C@H]1C(=O)N[C@@H]([C@@H](C)CC)C(=O)N(C)CC(=O)N(C)[C@H]2C/C=C\CCN(C2=O)[C@@H](Cc2ccc(C(F)(F)F)cc2)C(=O)N(C)CC(=O)N[C@@H](CCc2ccc(Cl)c(Cl)c2)C(=O)N2CC[C@H]2C(=O)NC2(CC(C)(C)C2)C(=O)N(C)[C@@H](C(CC)CC)C(=O)N(C)[C@H](C(=O)N(C)C)CC(=O)N1C [PP2921] | AA (a compound having 20 or more is denoted as AA) | A (a compound having 10 or more and less than 20 is denoted as A)
CCC(CC)[C@H]1C(=O)N(C)[C@H](C(=O)N(C)C)CC(=O)N(C)[C@@H](COC)C(=O)N[C@@H]([C@@H](C)CC)C(=O)N(C)CC(=O)N(C)[C@H]2C/C=C\CCN(C2=O)[C@@H](Cc2ccc(C)cc2)C(=O)N(C)CC(=O)N[C@@H](CCc2cc(F)c(C(F)(F)F)c(F)c2)C(=O)N2CCCC[C@H]2C(=O)NC2(CC(C)(C)C2)C(=O)N1C [PP2922] | AA (a compound having 20 or more is denoted as AA) | A (a compound having 10 or more and less than 20 is denoted as A)
CCC[C@H]1C(=O)N[C@@H]([C@@H](C)CC)C(=O)N(C)CC(=O)N(C)[C@H]2C/C=C\CCN(C2=O)[C@@H](Cc2ccc(C(F)(F)F)cc2)C(=O)N(C)CC(=O)N[C@@H](CCc2ccc(C(F)(F)F)c(Cl)c2)C(=O)N2CCCC[C@H]2C(=O)NC2(CC(C)(C)C2)C(=O)N(C)[C@@H](C(CC)CC)C(=O)N(C)[C@H](C(=O)N(C)C)CC(=O)N1C [PP2928] | AA (a compound having 20 or more is denoted as AA) | A (a compound having 10 or more and less than 20 is denoted as A)
CCC[C@H]1C(=O)N[C@@H]([C@@H](C)CC)C(=O)N(C)CC(=O)N(C)[C@H]2C/C=C\CCN(C2=O)[C@@H](Cc2ccc(C(F)(F)F)cc2)C(=O)N(C)CC(=O)N[C@@H](CCc2ccc(C(F)(F)F)c(Cl)c2)C(=O)N2CCOC[C@H]2C(=O)NC2(CC(C)(C)C2)C(=O)N(C)[C@@H](C(CC)CC)C(=O)N(C)[C@H](C(=O)N(C)C)CC(=O)N1C [PP2929] | AA (a compound having 20 or more is denoted as AA) | A (a compound having 10 or more and less than 20 is denoted as A)
CCC(CC)[C@H]1C(=O)N(C)[C@H](C(=O)N(C)C)CC(=O)N(C)[C@@H](COC)C(=O)N[C@@H]([C@@H](C)CC)C(=O)N(C)CC(=O)N(C)[C@H]2C/C=C\CCN(C2=O)[C@@H](Cc2ccc(C)cc2)C(=O)N(C)CC(=O)N[C@@H](CCc2ccc(C(F)(F)F)c(Cl)c2)C(=O)N2CCCC[C@H]2C(=O)NC2(CC(C)(C)C2)C(=O)N1C [PP2931] | A (a compound having 10 or more and less than 20 is denoted as A) | A (a compound having 10 or more and less than 20 is denoted as A)
CCC[C@H]1C(=O)N[C@@H]([C@@H](C)CC)C(=O)N(C)CC(=O)N(C)[C@H]2C/C=C\CCN(C2=O)[C@@H](Cc2ccc(C(F)(F)F)cc2)C(=O)N(C)CC(=O)N[C@@H](CCc2ccc(C(F)(F)F)c(OC)c2)C(=O)N2CCCC[C@H]2C(=O)NC2(CC(C)(C)C2)C(=O)N(C)[C@@H](C(CC)CC)C(=O)N(C)[C@H](C(=O)N(C)C)CC(=O)N1C [PP2934] | AA (a compound having 20 or more is denoted as AA) | A (a compound having 10 or more and less than 20 is denoted as A)
CCC[C@H]1C(=O)N[C@@H]([C@@H](C)CC)C(=O)N(C)CC(=O)N(C)[C@H]2C/C=C\CCN(C2=O)[C@@H](Cc2ccc(C(F)(F)F)cc2)C(=O)N(C)CC(=O)N[C@@H](CCc2ccc(C(F)(F)F)c(OC)c2)C(=O)N2CCOC[C@H]2C(=O)NC2(CC(C)(C)C2)C(=O)N(C)[C@@H](C(CC)CC)C(=O)N(C)[C@H](C(=O)N(C)C)CC(=O)N1C [PP2935] | A (a compound having 10 or more and less than 20 is denoted as A) | A (a compound having 10 or more and less than 20 is denoted as A)
